The subject of one data set is SD rats. The data set can be described thus: Autonomous activity of rats. The data set is classed as in vivo. Particulars: rat, in vivo. The procedure: The animals were placed in the test box immediately after administration, and the activity distance of the animals within 60 minutes was recorded and analyzed using Top Scan Version 3.0. […] The experimental data were expressed by mean ± standard deviation (Mean ± SD), and SPSS 21.0 statistical software was used for one-way analysis of variance. The Dunnett's test was used for pairwise comparison, and p<0.05 was represented as *.

Data set [1] can be described thus: in vivo. Particulars: rat.
In a further data set the target is T1, OX2 receptor (Homo sapiens, UniProt O43614).
T1 construct: host or cells: CHO-K1
T1 sequence (O43614 1-444): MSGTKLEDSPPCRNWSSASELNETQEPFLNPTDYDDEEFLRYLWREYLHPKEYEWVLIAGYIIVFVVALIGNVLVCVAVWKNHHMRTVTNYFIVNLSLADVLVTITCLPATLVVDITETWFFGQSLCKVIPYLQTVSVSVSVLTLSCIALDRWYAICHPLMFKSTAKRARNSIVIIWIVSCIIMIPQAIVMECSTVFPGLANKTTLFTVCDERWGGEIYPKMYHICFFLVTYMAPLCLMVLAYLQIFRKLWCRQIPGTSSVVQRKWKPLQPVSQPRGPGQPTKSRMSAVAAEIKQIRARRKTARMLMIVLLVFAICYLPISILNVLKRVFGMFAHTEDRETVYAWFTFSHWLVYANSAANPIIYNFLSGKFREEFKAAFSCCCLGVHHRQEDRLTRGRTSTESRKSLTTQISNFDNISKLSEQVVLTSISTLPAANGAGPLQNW
The data set can be described thus: Orexin target function test (Cisbio HTRF IP-one), CHO-K1-OX2 cells, antagonism of EC80 Orexin 2 receptor agonist. Type of data set: cell-based. The method, then:
(§1) Using Cisbio HTRF IP-one kit to detect the changes in IP-one concentration of orexin receptor (OX1/OX2) signaling pathway by microplate reader, and calculating the IC50 value of the compound to evaluate the antagonistic effect of the compound on OX1 and OX2 receptors.
(§2) The cells were centrifuged at 1000 rpm for 5 minutes and the supernatant was discarded. 3 mL of PBS was added, and gently blown with a pipette to mix. After centrifugation at 1000 rpm for 5 minutes again, the supernatant was discarded. […] Based on the antagonistic effect values of the compound samples at different concentrations, the GraphPad Prism software was used to fit the orexin receptor antagonism curve of the compound samples and calculate the IC50.
(In general: TR-FRET usually uses a lanthanide donor and a delayed reading to cut background.)

The target of a further data set is T2, OX1 receptor (Homo sapiens, UniProt O43613).
T2 construct: host or cells: CHO-K1
T2 sequence (O43613 1-425): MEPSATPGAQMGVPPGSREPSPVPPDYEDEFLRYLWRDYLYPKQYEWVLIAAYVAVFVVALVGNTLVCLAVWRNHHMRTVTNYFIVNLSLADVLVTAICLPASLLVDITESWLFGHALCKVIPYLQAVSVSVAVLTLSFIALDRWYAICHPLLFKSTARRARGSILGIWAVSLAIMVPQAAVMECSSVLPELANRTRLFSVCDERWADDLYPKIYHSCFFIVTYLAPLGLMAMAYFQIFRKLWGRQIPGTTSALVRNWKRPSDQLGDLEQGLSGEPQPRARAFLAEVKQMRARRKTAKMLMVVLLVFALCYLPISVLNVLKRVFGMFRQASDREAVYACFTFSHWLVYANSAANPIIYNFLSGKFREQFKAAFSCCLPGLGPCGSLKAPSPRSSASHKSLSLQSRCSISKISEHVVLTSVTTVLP
The data set can be described thus: Orexin target function test (Cisbio HTRF IP-one), CHO-K1-OX1 cells, antagonism of EC80 Orexin A. The data set is classed as cell-based. The method, then:
as §1, §2

A short description of data set [2]: Blood-brain barrier permeability of the test substance in rats. Particulars: male, SD, rat, oral, 30 mg/kg; for Kp at 0.25 h: brain/plasma.
Protocol: (§3) Twelve male SD rats were randomly divided into 4 groups, with 3 rats in each group. They were fasted for 8 hours before the test and had free access to water. The rats were intragastrically administered with 30 mg/kg of the test substance solution, and 0.3 mL of blood was collected from the jugular venous plexus of the rats before and 0.25 hours after administration. The rats were then anesthetized, the chest cavity was opened, the right atrial appendage was cut, and the blood was rapidly perfused from the back of the left ventricle. When the outflowing liquid was transparent and bloodless, the perfusion could be stopped, and the brain tissue was removed, dried with filter paper, weighed, and homogenized with an appropriate amount of physiological saline (1:4, v/v) to prepare a brain tissue homogenate. The whole blood sample was centrifuged at 4000 r/min for 10 min to separate the plasma.
(§4) The established LC-MS/MS method is used to detect the concentration of the test substance in plasma and brain tissue homogenate. The brain-to-blood ratio (Kb/p) of the test substance can be obtained by dividing the drug concentration in brain tissue by the drug concentration in plasma.
The conditions of data set [3]: male, SD, rat, in vivo, 30 mg/kg.
Protocol: as §3, §4
The nature of data set [4]: in vivo. The settings on record: male, SD, rat, 30 mg/kg.
Protocol: as §3, §4
Setting [5] is: CHO-K1-OX2 cells, IP-one, read-out: hOX2R IC50.
[6] abbreviates: CHO-K1-OX1 cells, IP-one, read-out: hOXIR IC50.

The structures appear in SMILES notation. Where two headings read alike, the source gives them in different places. Marks after values point to notes of the source that are not given here.

As to `COc1ccc(C(=O)N2CC3C=C(c4nc(C)c(F)c(C)n4)CC3C2)c(-n2nccn2)c1` (stereo not shown) [Compound 5, (5-(5-fluoro-4,6-dimethylpyrimidin-2-yl)-3,3a,4,6a-tetrahydrocyclopenta[c]pyrrol-2(1H)-yl)(4-methoxy-2-(2H-1,2,3-triazol-2-yl)phenyl)methanone], in the data set with SD rats (10 mg/kg), the “Activity distance (mm)” value amounted to 44396.01±2185.62 mm and the “Inhibition rate(%)” value is on record as 37.50* %. For the same compound, in the data set on SD rats (30 mg/kg), the “Activity distance (mm)” value amounted to 32526.47±1464.45 mm and the “Inhibition rate(%)” value is recorded as 45.79* %. In “in vivo [1]” (male, SD, plasma, iv, 1 mg/kg), this compound gave an AUC(0-t) of 738 ng·h/mL and a Cmax of 1600 ng/mL. Further, in “in vivo [1]” (male, SD, plasma, po, 30 mg/kg), the AUC(0-t) came out at 18500 ng·h/mL, the Cmax stood at 13800 ng/mL and the bioavailability came out at 83.6%. For the same compound, on OX2 receptor, the IC50 came out at 16 nM and the Selectivity was determined as 171. Also, on OX1 receptor, the IC50 worked out at 2800 nM.
As for `COc1cc(-n2nccn2)c(C(=O)N2CC3C=C(c4nc(C)c(F)c(C)n4)CC3C2)cn1` (stereo not shown) [Compound 22], the results for the “Activity distance (mm)” value in the data set with SD rats (10 mg/kg), in the data set with SD rats (30 mg/kg) and in the data set with SD rats (50 mg/kg) were 43970.97±9243.91 mm, 37396.46±6850.26 mm and 33132.59±9708.72 mm, respectively. Also, the results for the “Inhibition rate(%)” value in the data set on SD rats (10 mg/kg), in the data set on SD rats (30 mg/kg) and in the data set with SD rats (50 mg/kg) were 38.10* %, 47.35* % and 56.36* %, respectively. Further, the AUC(0-t) in “in vivo [1]” (in vivo, iv, 1 mg/kg) amounted to 305 ng·h/mL; in the data set “in vivo [1]” (in vivo, po, 30 mg/kg) it was 2640 ng·h/mL. The Cmax turned out to be 943 ng/mL in “in vivo [1]” (in vivo, iv, 1 mg/kg) and 1940 ng/mL in “in vivo [1]” (in vivo, po, 30 mg/kg). Further, in the data set “in vivo [1]” (in vivo, po, 30 mg/kg), the bioavailability turned out to be 28.9%. In addition, the results for the IC50 on OX2 receptor and against OX1 receptor were 15 nM and 2780 nM, respectively. The Selectivity on OX2 receptor was 185.
Consider `COc1ncc(C)nc1C1=CC2CN(C(=O)c3c(F)cccc3-n3nccn3)CC2C1` (stereo not shown) [Compound 39, (2-fluoro-6-(2H-1,2,3-triazol-2-yl)phenyl)(5-(3-methoxy-6-methylpyrazin-2-yl)-3,3a,4,6a-tetrahydrocyclopenta[c]pyrrol-2(1H)-yl)methanone], for which the figures for the concentration at 0.25 h in data set [2] (brain) and in data set [2] (plasma) were 285 ng/g and 1020 ng/mL, respectively. The compound also gave a Kp at 0.25 h in data set [2] of 0.28. Moreover, the Selectivity at OX2 receptor is given as 60. Besides, the 50% inhibitory concentration (IC50) at OX2 receptor (setting [5]) was determined as 20 nM; at OX1 receptor (setting [6]), 1200 nM.
As for `COc1ccc(C(=O)N2CC3C=C(c4nc(C)cnc4OC)CC3C2)c(-n2nccn2)c1` (stereo not shown) [Compound 41, (4-methoxy-2-(2H-1,2,3-triazol-2-yl)phenyl)(5-(3-methoxy-6-methylpyrazin-2-yl)-3,3a,4,6a-tetrahydrocyclopenta[c]pyrrol-2(1H)-yl)methanone], the concentration at 0.25 h was found to be 990 ng/g in data set [2] (brain) and 2570 ng/mL in data set [2] (plasma). Also, the Kp at 0.25 h in data set [2] was 0.39. In addition, the AUC(0-t) in the data set “in vivo [1]” (male, SD, plasma, iv, 1 mg/kg) amounted to 389 ng·h/mL; in “in vivo [1]” (male, SD, plasma, po, 30 mg/kg) it was 5600 ng·h/mL. Also, the Cmax in the data set “in vivo [1]” (male, SD, plasma, iv, 1 mg/kg) came to 706 ng/mL; in “in vivo [1]” (male, SD, plasma, po, 30 mg/kg), 3980 ng/mL. In “in vivo [1]” (male, SD, plasma, po, 30 mg/kg), this compound displayed a bioavailability of 48%. Further, the Selectivity at OX2 receptor is 87. For the same compound, the figures for the IC50 at OX2 receptor (setting [5]) and at OX1 receptor (setting [6]) were 19 nM and 1650 nM, respectively.
`COc1cc(C(=O)N2CC3C=C(c4nc(C)cnc4OC)CC3C2)c(-n2nccn2)cn1` (stereo not shown) [Compound 42, (2-methoxy-5-(2H-1,2,3-triazol-2-yl)pyridin-4-yl)(5-(3-methoxy-6-methylpyrazin-2-yl)-3,3a,4,6a-tetrahydrocyclopenta[c]pyrrol-2(1H)-yl)methanone]: the concentration at 0.25 h in data set [2] (brain) was determined as 193 ng/g; in data set [2] (plasma) it was 372 ng/mL. Also, the Kp at 0.25 h in data set [2] is 0.52. For the same compound, the Selectivity on OX2 receptor was found to be 54. Further, the IC50 is 24 nM at OX2 receptor (setting [5]) and 1300 nM on OX1 receptor (setting [6]).
At OX2 receptor, `COc1ncc(C)nc1C1=CC2CN(C(=O)c3ccc(F)cc3-n3nccn3)CC2C1` (stereo not shown) [Compound 44, [4-fluoro-2-(2H-1,2,3-triazol-2-yl)phenyl][5-(3-methoxy-6-methylpyrazin-2-yl)-3,3a,4,6a-tetrahydrocyclopenta[c]pyrrol-2(1H)-yl]methanone] had an IC50 of 18 nM and a Selectivity of 133. For the same compound, in data set [3], the “Brain” value turned out to be 231.3 ng/g and the “Plasma” value worked out at 235.6 ng/mL. Half-maximal inhibition against OX1 receptor (IC50) required 2400 nM. The Kp in the data set “in vivo [4]” stood at 0.98.
Take `CCOc1ncc(C)nc1C1=CC2CN(C(=O)c3ccc(OC)cc3-n3nccn3)CC2C1` (stereo not shown) [Compound 46, [5-(3-ethoxy-6-methylpyrazin-2-yl)-3,3a,4,6a-tetrahydrocyclopenta[c]pyrrol-2(1H)-yl][4-methoxy-2-(2H-1,2,3-triazol-2-yl)phenyl]methanone]: the concentration at 0.25 h in data set [2] (brain) turned out to be 210 ng/g; in data set [2] (plasma), 485 ng/mL. The same compound registered a Kp at 0.25 h in data set [2] of 0.43.

For orientation: AUC(0-t) means exposure summed from dosing to a finite time, without extrapolation to infinity. The Cmax is the peak of the concentration-time curve. One may read the bioavailability as dose-corrected exposure relative to a reference, in per cent. Low readings indicate poor availability, high ones good availability. The term IC50 denotes the point on the concentration scale where inhibition reaches its midpoint.

(Values after patent publication EP4635949A1 (Jiangsu NHWA Pharmaceutical Co., Ltd, priority 2022, dated 2024).)
